Measurements from US20220265775A1, “COMPOSITIONS AND METHODS FOR TREATING PULMONARY EDEMA OR LUNG INFLAMMATION” (priority 2019, published 2022).

System: RLE-6TN cells
Experiment: RLE-6TN cell survival under hyperoxia and recovery, viable cells counted by trypan blue exclusion
Format: cell-based, rat
Protocol: FIG. 7. […] The cells were cultured in DMEM/F12 with 10% FBS in 21% O2 and 5% CO2 overnight. […] The viable cells are counted immediately after 72-hour hyperoxia exposure. Cell viability is assessed with trypan blue. The amount of viable cells under specific conditions is presented as a percentage of the cell number from hyperoxia alone. Data are mean±s.d. of four independent experiments with *=P<0.05; **=P<0.01.
FIG. 8. […] In both (A) and (B), the number of viable cells under specific conditions is presented as a percentage of the cell number related to hyperoxia alone in the same experiment. Data are mean s.d. of four independent experiments with *=P<0.05; **=P<0.01.
FIG. 10. HO-1 upregulation is required for T3-increased RLE-6TN cell survival in hyperoxia. […] The cells were then collected for Western Blot analysis. (B) The cells were incubated in 21% O2 and 5% CO2 for 72 hours in the present of HO-1 inhibitor Tin Protoporphyrin IX (10^−6M). […] Cell viability is assessed with trypan blue. The number of viable cells under specific conditions is presented as a percentage of the cell number related to hyperoxia alone. Data are mean±s.d. of three independent experiments with *=P<0.05; **=P<0.01.
FIG. 11. PI3K inhibitor wortmannin blocked T3-induced cell survival in hyperoxia. […] Cell viability is assessed with trypan blue. The number of viable cells under specific conditions is presented as a percentage of the cell number related to hyperoxia alone. Data are mean±s.d. of four independent experiments with *=P<0.05; **=P<0.01.
At the end of the hyperoxia exposure period, the viable cells were counted by trypan blue dye exclusion.

Row | SMILES | AT2 cell number in room air (21% O2 for 72 hours, Tin Protoporphyrin IX 10^−6M) | effect on T3-caused increase in cell survival in hyperoxia (90% O2 72 hours, T3 10^−6M with Tin Protoporphyrin IX 10^−6M) | number of viable AT2 cells at 48 hours of recovery (90% oxygen for 24 or 48 hours, compound present only during recovery in 21% O2) | effect on cell survival under hyperoxia (90% oxygen for 72 hours, 10^−6M)
1 | C=Cc1c2[n-]c(c1C)/C=c1\[n-]/c(c(C)c1C=C)=C\c1[n-]c(c(CCC(=O)O)c1C)C=c1[n-]/c(c(C)c1CCC(=O)O)=C\2.[Sn+4] [Tin protoporphyrin, Tin Protoporphyrin IX] | no effect on AT2 cell number in room air | blocked the T3-caused increase in cell survival and augmented cell death |  | 
2 | N[C@@H](Cc1ccc(Oc2cc(I)c(O)c(I)c2)c(I)c1)C(=O)O [rT3] |  |  | no protective effect | no role in cell survival
